Assay results: the supplement of paper PMC10307832

Legend:
Assay in all cases: relative viability (nuclei count vs DMSO), 5 days (fraction); higher = more cells survive
OSI-027 + Decitabine = compound: COc1cccc2cc(-c3nc([C@H]4CC[C@H](C(=O)O)CC4)n4ncnc(N)c34)[nH]c12 [OSI-027] + Nc1ncn([C@H]2C[C@H](O)[C@@H](CO)O2)c(=O)n1 [Decitabine] (partner 2 µM)
Summary of the method: (§1)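 One day after seeding in 1536-well plates, lung cancer cell lines were dosed by pin tool. Dosing was either single-drug or a fixed anchor-drug dose plus five library-drug doses (not always all listed) in √10 steps. After 5 days, nuclei were stained in one fix-and-stain step and counted on 4× images, and relative viability is the nuclei count of treated wells over that of vehicle wells, given as the median of duplicate plates.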

Vemurafenib + Pemetrexed = compound: CCCS(=O)(=O)Nc1ccc(F)c(C(=O)c2c[nH]c3ncc(-c4ccc(Cl)cc4)cc23)c1F [Vemurafenib] + Nc1nc2[nH]cc(CCc3ccc(C(=O)N[C@@H](CCC(=O)O)C(=O)O)cc3)c2c(=O)[nH]1 [Pemetrexed] (partner 0.2 µM)
Summary of the method: as §1

OSI-027 + Alpelisib = compound: COc1cccc2cc(-c3nc([C@H]4CC[C@H](C(=O)O)CC4)n4ncnc(N)c34)[nH]c12 [OSI-027] + Cc1nc(NC(=O)N2CCC[C@H]2C(N)=O)sc1-c1ccnc(C(C)(C)C(F)(F)F)c1 [Alpelisib] (partner 2 µM)
Summary of the method: as §1

Alpelisib + AZD7762 = compound: Cc1nc(NC(=O)N2CCC[C@H]2C(N)=O)sc1-c1ccnc(C(C)(C)C(F)(F)F)c1 [Alpelisib] + NC(=O)Nc1cc(-c2cccc(F)c2)sc1C(=O)N[C@H]1CCCNC1 [AZD7762] (partner 0.2 µM)
Summary of the method: as §1

Cell Line | relative viability (OSI-027 + Decitabine; first compound 0.01 µM) | relative viability (OSI-027 + Decitabine; first compound 0.03162 µM) | relative viability (OSI-027 + Decitabine; first compound 0.1 µM) | relative viability (OSI-027 + Decitabine; first compound 0.3162 µM) | relative viability (OSI-027 + Decitabine; first compound 1 µM) | relative viability (Vemurafenib + Pemetrexed; first compound 0.03162 µM) | relative viability (Vemurafenib + Pemetrexed; first compound 0.1 µM) | relative viability (Vemurafenib + Pemetrexed; first compound 1 µM) | relative viability (OSI-027 + Alpelisib; first compound 0.01 µM) | relative viability (OSI-027 + Alpelisib; first compound 0.03162 µM) | relative viability (OSI-027 + Alpelisib; first compound 0.1 µM) | relative viability (OSI-027 + Alpelisib; first compound 0.3162 µM) | relative viability (OSI-027 + Alpelisib; first compound 1 µM) | relative viability (Alpelisib + AZD7762; first compound 0.04 µM) | relative viability (Alpelisib + AZD7762; first compound 0.1265 µM) | relative viability (Alpelisib + AZD7762; first compound 0.4 µM) | relative viability (Alpelisib + AZD7762; first compound 1.265 µM) | relative viability (Alpelisib + AZD7762; first compound 4 µM) | relative viability (Vemurafenib + Pemetrexed; first compound 0.3162 µM)
A-427 | 0.522 | 0.59 | 0.469 | 0.484 | 0.37 | 0.866 | 0.918 | 1.1 | 1.04 | 1.08 | 0.961 | 0.82 | 0.429 | 0.712 | 0.649 | 0.72 | 0.574 | 0.617 | –
NCI-H1703 | – | – | – | – | – | – | – | – | 0.32 | 0.285 | 0.284 | 0.279 | 0.238 | 0.0965 | 0.129 | 0.125 | 0.103 | 0.116 | –
HCC-366 | 0.345 | 0.367 | 0.381 | 0.265 | 0.228 | 0.178 | 0.166 | 0.151 | 0.373 | 0.423 | 0.256 | 0.243 | 0.1 | 0.317 | 0.316 | 0.307 | 0.183 | 0.072 | –
NCI-H661 | 0.521 | 0.522 | 0.491 | 0.417 | 0.327 | 1.01 | 0.929 | 0.929 | 0.482 | 0.671 | 0.41 | 0.5 | 0.33 | – | – | – | – | – | 0.978
NCI-H2126 | 0.558 | 0.553 | 0.565 | 0.523 | 0.601 | 0.627 | 0.662 | 0.777 | 0.764 | 0.69 | 0.694 | 0.603 | 0.399 | 0.998 | 1.01 | 0.945 | 0.904 | 0.769 | 0.684
LCLC-97TM1 | 0.256 | 0.23 | 0.195 | 0.174 | 0.22 | – | 0.163 | 0.149 | 0.208 | 0.207 | 0.203 | 0.145 | 0.123 | 0.165 | 0.305 | 0.34 | 0.289 | 0.166 | 0.185
NCI-H2405 | 0.688 | 0.74 | 0.709 | 0.634 | 0.451 | 1.02 | 0.977 | 1.17 | 0.783 | 0.664 | 0.577 | 0.475 | 0.33 | 0.763 | 0.728 | 0.686 | 0.446 | 0.428 | –
COR-L 105 | 0.739 | 0.56 | 0.603 | 0.639 | 0.647 | 0.939 | – | 1.05 | 1.05 | 0.85 | 0.963 | 0.658 | 0.524 | – | – | – | – | – | 1.2
BEN | 0.609 | 0.707 | 0.596 | 0.513 | 0.483 | 0.627 | 0.832 | 0.619 | 1.02 | 0.695 | 0.67 | 0.447 | 0.319 | 0.67 | 0.59 | 0.756 | 0.825 | 0.549 | 0.445
HCC-827 | 0.304 | 0.291 | 0.3 | 0.329 | 0.277 | 0.273 | – | 0.238 | 0.871 | 1.03 | 0.921 | 0.736 | 0.281 | 0.253 | 0.212 | 0.209 | 0.199 | 0.168 | 0.287
NCI-H3122 | 0.415 | 0.547 | 0.457 | 0.345 | 0.154 | 0.206 | 0.188 | 0.203 | 0.711 | 0.762 | 0.657 | 0.405 | 0.284 | 0.989 | 1.03 | 0.978 | 0.693 | 0.589 | 0.214
NCI-H1299 | – | – | – | – | – | – | – | – | 1.11 | 1.05 | 1.12 | 1.08 | 0.786 | – | – | – | – | – | –
LK-2 | 0.207 | 0.251 | 0.231 | 0.234 | 0.142 | 0.247 | 0.274 | 0.304 | 1.18 | 0.835 | 0.84 | 0.321 | 0.165 | 0.402 | 0.253 | 0.442 | 0.209 | 0.123 | 0.26
HCC-15 | 0.571 | 0.642 | 0.57 | 0.537 | 0.372 | 0.227 | 0.226 | 0.222 | 0.928 | 0.826 | 0.806 | 0.674 | 0.288 | 1.23 | 1.35 | 1.32 | 1.05 | 0.908 | 0.209
IA-LM | – | – | – | – | – | – | – | – | 0.791 | 0.686 | 0.455 | 0.322 | 0.113 | – | – | – | – | – | –
NCI-H1755 | 0.75 | 0.716 | 0.702 | 0.654 | 0.503 | 0.512 | 0.453 | 0.398 | 0.92 | 0.849 | 0.917 | 0.8 | 0.353 | 0.378 | 0.544 | 0.465 | 0.326 | 0.362 | 0.422
EMC-BAC-2 | 0.97 | 0.992 | 0.934 | 0.827 | 0.588 | 0.447 | 0.475 | 0.437 | 0.723 | 0.727 | 0.647 | 0.558 | 0.309 | 1.1 | 1.05 | 0.946 | 0.832 | 0.581 | 0.358
NCI-H838 | 0.503 | 0.483 | 0.403 | 0.378 | 0.337 | 0.252 | 0.235 | 0.272 | 0.996 | 0.847 | 0.632 | 0.498 | 0.275 | 0.916 | 0.946 | 1.02 | 0.775 | 0.86 | 0.338
NCI-H1650 | 0.454 | 0.45 | 0.471 | 0.308 | 0.314 | 0.343 | 0.316 | 0.351 | – | – | – | – | – | – | – | – | – | – | 0.343
NCI-H1975 | 0.392 | 0.395 | 0.398 | 0.434 | 0.4 | 0.285 | 0.284 | 0.299 | 0.659 | 0.667 | 0.455 | 0.38 | 0.355 | 0.731 | 0.621 | 0.731 | 0.463 | 0.374 | 0.262
